For 25 molecules, IC50 results are on record in patent EP4667458A1 (Kanaph Therapeutics Inc., priority 2023, dated 2024).

For orientation: IC50 means the concentration that gives 50% inhibition.

In the assay the target is T1, SOS1 (Homo sapiens, UniProt Q07889).
T1 construct: adding equal amounts of HIS-SOS1cat (160 nM; Cytoskeleton, US); His; purchased Cytoskeleton, US
T1 sequence (Q07889 564-1049 limits assumed): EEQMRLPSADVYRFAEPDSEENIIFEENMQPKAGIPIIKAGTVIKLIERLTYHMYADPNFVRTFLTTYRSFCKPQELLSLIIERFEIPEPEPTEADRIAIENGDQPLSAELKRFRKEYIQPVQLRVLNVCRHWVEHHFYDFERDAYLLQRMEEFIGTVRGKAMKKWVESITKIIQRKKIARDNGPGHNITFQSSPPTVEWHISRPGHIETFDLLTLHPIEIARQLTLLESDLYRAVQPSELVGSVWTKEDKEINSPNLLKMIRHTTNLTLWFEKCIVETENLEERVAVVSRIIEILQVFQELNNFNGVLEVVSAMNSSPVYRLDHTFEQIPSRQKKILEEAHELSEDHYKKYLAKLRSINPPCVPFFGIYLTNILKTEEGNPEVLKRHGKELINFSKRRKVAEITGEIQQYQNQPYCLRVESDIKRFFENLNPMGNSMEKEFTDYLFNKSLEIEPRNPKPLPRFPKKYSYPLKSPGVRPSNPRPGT
The assay can be described thus: SOS-catalyzed nucleotide exchange assay (HTRF, SOS1-mediated GTP loading of KRAS G12D). The format is biochemical. To be noted: GST-KRAS G12D, HIS-SOS1cat, EDA-GTP-DY-647P1; compound 128 pM to 10 µM; read-out: SOS-catalyzed nucleotide exchange assay (IC50 range, Grade). As for the experimental part: SOS1 activity was measured by SOS1-mediated GTP loading quantification of KRAS^G12D. GTP-loaded KRAS^G12D was detected by HTRF (Homogeneous Time Resolved Fluorescence) using anti-GST terbium (Cisbio, France) as a donor and a fluorescence GTP analogue (EDA-GTP-DY-647P1, [DY-647P1-labeled 2'/3'-O-(2-aminoethyl-carbamoyl)guanosine-5'-triphosphate (Jena bioscience, Germany)]) as an acceptor.
Assay buffer was composed of 10 mM HEPES pH 7.4, 150 mM NaCl, 5 mM MgCl2, 1 mM DTT, 0.05% BSA Fraction V pH 7.0 (Sigma) and 0.0025% (v/v) Igepal (Sigma). KRAS^G12D working solution was prepared by adding equal amounts of GST-KRAS^G12D (100 nM) and anti-GST-terbium (2 nM; Cisbio, France) to the assay buffer and incubating on ice for 10 minutes. SOS1cat working solution was prepared by adding equal amounts of HIS-SOS1cat (160 nM; Cytoskeleton, US) and EDA-GTP-DY-647P1 (200 nM; Jena bioscience, Germany) to the assay buffer. Control solution was prepared by adding equal volumes of EDA-GTP-DY-647P1 and the assay buffer for normalization control to exclude GEF-independent GTP loading and background signals. In order to induce a reaction, 5 µL of the SOS1cat working solution or the control solution was injected into each well. 5 µL of a compound having various concentrations from 128 pM to 10 µM was added to wells containing the SOS1cat working solution and incubated at room temperature for 10 minutes to bind to SOS1.
10 µL of the KRAS^G12D solution was added to each well and incubated for 30 minutes at room temperature while shaking. HTRF was measured using a Thermo Varioskan (excitation 334 nm, emission 665 nm). The IC50 of each inhibitor was analyzed using Graphad Prism.
The SOS1 inhibitory activity of the Example compounds measured by the above method was evaluated based on the following criteria, and the results are shown in Table 29.
For `COc1ccccc1-n1nc(C(=O)N[C@H](C)c2cccc(C(F)(F)CO)c2)ccc1=O` [Example 38, N-[(1R)-1-[3-(1,1-difluoro-2-hydroxyethyl)phenyl]ethyl]-1-(2-methoxyphenyl)-6-oxo-pyridazine-3-carboxamide], the IC50 is below 1 µM.
With `C[C@@H](NC(=O)c1ccc(=O)n(-c2cccc(NS(C)(=O)=O)c2)n1)c1cccc(C(F)(F)CO)c1` [Example 39, (R)-N-(1-(3-(1,1-difluoro-2-hydroxyethyl)phenyl)ethyl)-1-(3-(methylsulfonamido)phenyl)-6-oxo-1,6-dihydropyridazine-3-carboxamide] the figure was below 1 µM.
Turning to `COc1cccc(-n2nc(C(=O)N[C@H](C)c3cc(N)cc(C(F)(F)F)c3)ccc2=O)c1` [Example 40, N-[(1R)-1-[3-amino-5-(trifluoromethyl)phenyl]ethyl]-1-(3-methoxyphenyl)-6-oxo-pyridazine-3-carboxamide], the IC50 was below 1 µM.
With `Cc1ccccc1-n1nc(C(=O)N[C@H](C)c2cc(N)cc(C(F)(F)F)c2)ccc1=O` [Example 41, N-[(1R)-1-[3-amino-5-(trifluoromethyl)phenyl]ethyl]-1-(o-tolyl)-6-oxo-pyridazine-3-carboxamide] the figure was below 1 µM; with `COc1ccc(-n2nc(C(=O)N[C@H](C)c3cccc(C(F)(F)CO)c3F)ccc2=O)cc1` [Example 42, (R)-N-(1-(3-(1,1-difluoro-2-hydroxyethyl)-2-fluorophenyl)ethyl)-1-(4-methoxyphenyl)-6-oxo-1,6-dihydropyridazine-3-carboxamide], below 1 µM.
With `C[C@@H](NC(=O)c1ccc(=O)n(-c2cccc(C(=O)N(C)C)c2)n1)c1cccc(C(F)(F)CO)c1F` [Example 43, N-[(1R)-1-[3-(1,1-difluoro-2-hydroxy-ethyl)-2-fluorophenyl]ethyl]-1-[3-(dimethylcarbamoyl)phenyl]-6-oxo-pyridazine-3-carboxamide] the figure was below 1 µM.
With `C[C@@H](NC(=O)c1ccc(=O)n(-c2ccccc2OC(F)(F)F)n1)c1cccc(C(F)(F)CO)c1F` [Example 44, (R)-N-(1-(3-(1,1-difluoro-2-hydroxyethyl)-2-fluorophenyl)ethyl)-6-oxo-1-(2-(trifluoromethoxy)phenyl)-1,6-dihydropyridazine-3-carboxamide] the figure was below 1 µM; with `C[C@@H](NC(=O)c1ccc(=O)n(-c2ccccc2OC(F)(F)F)n1)c1cc(N)cc(C(F)(F)F)c1` [Example 45, N-[(1R)-1-[3-amino-5-(trifluoromethyl)phenyl]ethyl]-6-oxo-1-[2-(trifluoromethoxy)phenyl]pyridazine-3-carboxamide], below 1 µM; with `C[C@@H](NC(=O)c1ccc(=O)n(-c2ccccc2F)n1)c1cc(N)cc(C(F)(F)F)c1` [Example 46, (R)-N-(1-(3-amino-5-(trifluoromethyl)phenyl)ethyl)-1-(2-fluorophenyl)-6-oxo-1,6-dihydropyridazine-3-carboxamide], below 1 µM.
With `C[C@@H](NC(=O)c1ccc(=O)n(-c2ccccc2O)n1)c1cc(N)cc(C(F)(F)F)c1` [Example 47, N-[(1R)-1-[3-amino-5-(trifluoromethyl)phenyl]ethyl]-1-(2-hydroxyphenyl)-6-oxo-pyridazine-3-carboxamide], the IC50 is below 1 µM.
For `C[C@@H](NC(=O)c1cc(O)c(=O)n(-c2ccccc2)n1)c1cc(N)cc(C(F)(F)F)c1` [Example 48, (R)-N-(1-(3-amino-5-(trifluoromethyl)phenyl)ethyl)-5-hydroxy-6-oxo-1-phenyl-1,6-dihydropyridazine-3-carboxamide] the value was 1 to 10 µM; for `Cc1cc(=O)n(-c2ccccc2)nc1C(=O)N[C@H](C)c1cc(N)cc(C(F)(F)F)c1` [Example 49, N-[(1R)-1-[3-amino-5-(trifluoromethyl)phenyl]ethyl]-4-methyl-6-oxo-1-phenyl-pyridazine-3-carboxamide], 1 to 10 µM.
With `C#Cc1cc(=O)n(-c2ccccc2)nc1C(=O)N[C@H](C)c1cc(N)cc(C(F)(F)F)c1` [Example 50, N-[(1R)-1-[3-amino-5-(trifluoromethyl)phenyl]ethyl]-4-ethynyl-6-oxo-1-phenyl-pyridazine-3-carboxamide], the IC50 lay within 1 to 10 µM.
With `C[C@@H](NC(=O)c1ccc(=O)n(-c2ccccc2N)n1)c1cc(N)cc(C(F)(F)F)c1` [Example 51, (R)-N-(1-(3-amino-5-(trifluoromethyl)phenyl)ethyl)-1-(2-aminophenyl)-6-oxo-1,6-dihydropyridazine-3-carboxamide], the IC50 is below 1 µM.
With `CC(=O)Nc1ccccc1-n1nc(C(=O)N[C@H](C)c2cc(N)cc(C(F)(F)F)c2)ccc1=O` [Example 52, (R)-1-(2-acetamidophenyl)-N-(1-(3-amino-5-(trifluoromethyl)phenyl)ethyl)-6-oxo-1,6-dihydropyridazine-3-carboxamide] the figure was 1 to 10 µM; with `CC(=O)Nc1cccc(-n2nc(C(=O)N[C@H](C)c3cccc(C(F)(F)CO)c3)ccc2=O)c1` [Example 53, 1-(3-acetamidophenyl)-N-[(1R)-1-[3-(1,1-difluoro-2-hydroxyethyl)phenyl]ethyl]-6-oxo-pyridazine-3-carboxamide], 1 to 10 µM; with `C[C@@H](NC(=O)c1cc(C2CC2)c(=O)n(-c2ccccc2)n1)c1cc(N)cc(C(F)(F)F)c1` [Example 54, (R)-N-(1-(3-amino-5-(trifluoromethyl)phenyl)ethyl)-5-cyclopropyl-6-oxo-1-phenyl-1,6-dihydropyridazine-3-carboxamide], below 1 µM.
For `C[C@@H](NC(=O)c1nn(-c2ccccc2)c(=O)cc1C1CC1)c1cc(N)cc(C(F)(F)F)c1` [Example 55, (R)-N-(1-(3-amino-5-(trifluoromethyl)phenyl)ethyl)-4-cyclopropyl-6-oxo-1-phenyl-1,6-dihydropyridazine-3-carboxamide] the value was below 1 µM; for `C[C@@H](NC(=O)c1cc(C#N)c(=O)n(-c2ccccc2)n1)c1cc(N)cc(C(F)(F)F)c1` [Example 56, N-[(1R)-1-[3-amino-5-(trifluoromethyl)phenyl]ethyl]-5-cyano-6-oxo-1-phenyl-pyridazine-3-carboxamide], below 1 µM.
Take `C[C@@H](NC(=O)c1ccc(=O)n(-c2ccccc2)n1)c1cccc(C(F)(F)CO)c1` [Example 57, N-[(1R)-1-[3-(1,1-difluoro-2-hydroxy-ethyl)phenyl]ethyl]-6-oxo-1-phenyl-pyridazine-3-carboxamide]: the IC50 was below 1 µM.
For `C[C@@H](NC(=O)c1ccc(=O)n(-c2cccc(S(C)(=O)=O)c2)n1)c1cccc(C(F)(F)CO)c1` [Example 58, N-[(1R)-1-[3-(1,1-difluoro-2-hydroxy-ethyl)phenyl]ethyl]-1-(3-methylsulfonylphenyl)-6-oxo-pyridazine-3-carboxamide] the value was below 1 µM; for `C[C@@H](NC(=O)c1ccc(=O)n(-c2ccccc2)n1)c1cccc(C(F)(F)CO)c1F` [Example 59, N-[(1R)-1-[3-(1,1-difluoro-2-hydroxy-ethyl)-2-fluoro-phenyl]ethyl]-6-oxo-1-phenyl-pyridazine-3-carboxamide], below 1 µM.
Take `CCOc1cccc([C@@H](C)NC(=O)c2ccc(=O)n(-c3ccccc3)n2)c1` [Example 60, (R)-N-(1-(3-ethoxyphenyl)ethyl)-6-oxo-1-phenyl-1,6-dihydropyridazine-3-carboxamide]: the IC50 is above 10 µM.
With `C[C@@H](NC(=O)c1ccc(=O)n(-c2ccccc2)n1)c1cccc([Si](C)(C)C)c1` [Example 61, 6-oxo-1-phenyl-N-[(1R)-1-(3-trimethylsilylphenyl)ethyl]pyridazine-3-carboxamide] the figure was 1 to 10 µM.
Consider `C[C@@H](NC(=O)c1ccc(=O)n(-c2ccccc2)c1)c1cc(N)cc(C(F)(F)F)c1` [Example 62, N-[(1R)-1-[3-amino-5-(trifluoromethyl)phenyl]ethyl]-6-oxo-1-phenylpyridine-3-carboxamide], for which the IC50 is below 1 µM.
